Common to all, as to format: cell-based
In experiment [1] the test system is NCI-H226 cells. Put plainly: Proliferation assay (EdU incorporation), NCI-H226. As to conditions: Homo sapiens, 72 h, YAP-driven NCI-H226 (NF2 mutation), 3 days with inhibitor, 1% serum. As for the experimental part:
(§1) The anti-proliferative activity of TEAD inhibitors was evaluated in cells with different properties for YAP; “YAP-driven” cells (MSTO-211H, NCI-H226) in which YAP located in the nucleus and “YAP-independent” cells (OCM1, NCI-H28) where YAP located in the cytoplasm. […] TEAD inhibitors were evaluated with cell lines with these YAP profiling and mutational status.
(§2) The next day, replace it with cell starvation medium containing 1% serum. After one day of growth in the starvation medium, the cells were incubated for 3 days with TEAD inhibitors in a concentration range of 0.01-10 μM. After 3 days, EdU (Invitrogen) at a concentration of 10 µM was added to the starvation medium and incubated for an additional 24 hours. After removing the starvation medium remaining in each well, wash the wells with PBS. Cells were fixed with 4% paraformaldehyde (Electron microscopy sciences) at room temperature for 20 minutes. After removing the fix solution remaining in each well, wash the wells with PBS and the cells were permeabilized for 40 minutes by adding 0.5% triton X-100 (Sigma Aldrich). After removing the permeabilization solution remaining in each well, the EdU labeling was performed according to the instructions of the manufacturer's instructions (Click-iT™ Cell Reaction Buffer Kit, Invitrogen). After the Click reaction for EdU labeling, nuclei were stained with […] (Thermo Scientific) for total cell count analysis. After plate preparation for detection, Image acquisition was performed using the ImageXpress Micro XLS. The acquired images were analyzed using MetaXpress software (molecular devices). Through this experimental method, it was possible to confirm the inhibitory activity of TEAD inhibitors by detection EdU incorporated into proliferating cells.
(§3) IC50 for cell proliferation inhibition activity are shown in the Table 2 below and designated within the following ranges. [+++: ≤0.1 μM, ++: >0.1 μM to ≤1 μM, +: >1 μM to ≤10μ, −: >10 μM]

The test system of experiment [2] is MSTO-211H cells. Put plainly: Proliferation assay (EdU incorporation), MSTO-211H. To be noted: Homo sapiens, 72 h, YAP-driven MSTO-211H (LATS1 mutation), 3 days with inhibitor, 1% serum. As for the experimental part: as §1, §2, §3
Experiment [3] has as its system TEAD reporter-containing human breast cancer cell line MCF7. Kind of experiment: TEAD reporter (luciferase) assay. As to conditions: TEAD reporter MCF7 cells, 24 hours treatment, 1% serum media. A digest of the protocol:
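Cells plated at 30,000/well overnight, then treated 24 h in 1% serum medium with 0.1% DMSO. CCK-8 viability read at 450 nm, then Dual-Glo luciferase luminescence; IC50 from non-linear regression of dose-response curves.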

Molecules are shown by their SMILES. pIC50: −log10 of the molar value.

The term pIC50 denotes the negative decadic logarithm of the IC50, by convention in mol/L. With `C=CC(=O)Nc1cnc2c(c1)c(/C=C/c1ccc(Cl)cc1)cn2C` [Compound 16, (E)-N-(3-(4-Chlorostyryl)-1-methyl-1H-pyrrolo[2,3-b]pyridin-5-yl)acrylamide], the pIC50 was at least 7.00 in experiment [1], at least 7.00 in experiment [2] and 6.00 to 7.00 in experiment [3].

`C=CC(=O)Nc1cnc2c(c1)c(-c1ccc(Cl)cc1)cn2C` [Example 98, N-(3-(4-Chlorophenyl)-1-methyl-1H-pyrrolo[2,3-b]pyridin-5-yl)acrylamide]: the negative logarithm of the IC50 (pIC50) was at least 7.00 in experiment [1], at least 7.00 in experiment [2] and 5.00 to 6.00 in experiment [3].

For `C=CC(=O)Nc1ccc2c(c1)c(/C=C/c1ccc(Cl)cc1)nn2CC` [Compound 4, (E)-N-(3-(4-Chlorostyryl)-1-ethyl-1H-indazol-5-yl)acrylamide], the negative-log IC50 (pIC50) in experiment [1] is at least 7.00; in experiment [2] it was at least 7.00; in experiment [3], below 5.00.

Turning to `C=CC(=O)Nc1cnc2c(c1)c(-c1ccc(C(C)C)cc1)cn2C` [Example 93, N-(3-(4-Isopropylphenyl)-1-methyl-1H-pyrrolo[2,3-b]pyridin-5-yl)acrylamide], the pIC50 in experiment [1] was at least 7.00; in experiment [2] it was at least 7.00; in experiment [3], 6.00 to 7.00.

For the compound `C=CC(=O)Nc1ccc2c(c1)c(/C=C/C1CCC(F)(F)CC1)cn2C` [Compound 21, (E)-N-(3-(2-(4,4-Difluorocyclohexyl)vinyl)-1-methyl-1H-indol-5-yl)acrylamide], the pIC50 is 6.00 to 7.00 in experiment [1], 6.00 to 7.00 in experiment [2] and at least 7.00 in experiment [3].

With `C=CC(=O)Nc1cnc2c(c1)c(/C=C/C1CCC(F)(F)CC1)cn2C` [Compound 15, (E)-N-(3-(2-(4,4-Difluorocyclohexyl)vinyl)-1-methyl-1H-pyrrolo[2,3-b]pyridin-5-yl)acrylamide], the negative-log IC50 (pIC50) in experiment [1], in experiment [2] and in experiment [3] was at least 7.00 in each case.

Take `C=CC(=O)Nc1cnc2c(c1)c(/C=C/c1ccc(Cl)cc1)nn2C` [Compound 31, (E)-N-(3-(4-Chlorostyryl)-1-methyl-1H-pyrazolo[3,4-b]pyridin-5-yl)acrylamide]: the pIC50 in experiment [1] is at least 7.00; in experiment [2], at least 7.00; in experiment [3], 6.00 to 7.00.

`C=CC(=O)Nc1cnc2c(c1)c(-c1ccc(CC)cc1)cn2C` [Example 89, N-(3-(4-Ethylphenyl)-1-methyl-1H-pyrrolo[2,3-b]pyridin-5-yl)acrylamide]: the negative logarithm of the IC50 (pIC50) in experiment [1] is at least 7.00; in experiment [2] it was at least 7.00; in experiment [3], 6.00 to 7.00.

As to `C=CC(=O)Nc1cnc2c(c1)c(-c1ccc(F)c(C(F)(F)F)c1)cn2C` [Example 92, N-(3-(4-Fluoro-3-(trifluoromethyl)phenyl)-1-methyl-1H-pyrrolo[2,3-b]pyridin-5-yl)acrylamide], the negative logarithm of the IC50 (pIC50) in experiment [1], in experiment [2] and in experiment [3] was at least 7.00 in each case.

As to `C=CC(=O)Nc1ccc2c(c1)c(/C=C/c1ccc(Cl)cc1)nn2C` [Compound 2, (E)-N-(3-(4-Chlorostyryl)-1-methyl-1H-indazol-5-yl)acrylamide], the values for the negative-log IC50 (pIC50) in experiment [1], in experiment [2] and in experiment [3] were at least 7.00, at least 7.00 and 6.00 to 7.00, respectively.

Take `C=CC(=O)Nc1cnc2c(c1)c(/C=C/C1CCC(F)(F)CC1)nn2C` [Compound 30, (E)-N-(3-(2-(4,4-Difluorocyclohexyl)vinyl)-1-methyl-1H-pyrazolo[3,4-b]pyridin-5-yl)acrylamide]: the pIC50 in experiment [1] is at least 7.00; in experiment [2], 6.00 to 7.00; in experiment [3], at least 7.00.

Turning to `C=CC(=O)Nc1cnc2c(c1)c(CCc1ccc(F)cc1)cn2C` [Example 63, N-(3-(4-Fluorophenethyl)-1-methyl-1H-pyrrolo[2,3-b]pyridin-5-yl)acrylamide], the negative-log IC50 (pIC50) in experiment [1], in experiment [2] and in experiment [3] was at least 7.00 each time.

Consider `C=CC(=O)Nc1ccc2c(c1)c(/C=C/C1CCC(F)(F)CC1)nn2CC` [Compound 3, (E)-N-(3-(2-(4,4-Difluorocyclohexyl)vinyl)-1-ethyl-1H-indazol-5-yl)acrylamide], for which the pIC50 in experiment [1] was 6.00 to 7.00; in experiment [2], at least 7.00; in experiment [3], at least 7.00.

Regarding `C=CC(=O)Nc1ccc2c(c1)c(/C=C/c1ccc(F)cc1)cn2C` [Compound 24, (E)-N-(3-(4-Fluorostyryl)-1-methyl-1H-indol-5-yl)acrylamide], the pIC50 in experiment [1] is at least 7.00; in experiment [2] it was 6.00 to 7.00; in experiment [3], 6.00 to 7.00.

On to `C=CC(=O)Nc1ccc2c(c1)c(/C=C/c1ccc(Cl)cc1)cn2C` [Compound 22, (E)-N-(3-(4-Chlorostyryl)-1-methyl-1H-indol-5-yl)acrylamide], for which the pIC50 in experiment [1], in experiment [2] and in experiment [3] was 6.00 to 7.00 throughout.

`C=CC(=O)Nc1cnc2c(c1)c(-c1ccc(Cl)c(F)c1)cn2C` [Example 87, N-(3-(4-Chloro-3-fluorophenyl)-1-methyl-1H-pyrrolo[2,3-b]pyridin-5-yl)acrylamide]: the results for the pIC50 in experiment [1], in experiment [2] and in experiment [3] were at least 7.00, at least 7.00 and 6.00 to 7.00, respectively.

As to `C=CC(=O)Nc1cnc2c(c1)c(/C=C/c1ccc(Cl)cc1)cn2CC` [Compound 18, (E)-N-(3-(4-Chlorostyryl)-1-ethyl-1H-pyrrolo[2,3-b]pyridin-5-yl)acrylamide], the negative logarithm of the IC50 (pIC50) is at least 7.00 in experiment [1], at least 7.00 in experiment [2] and 5.00 to 6.00 in experiment [3].

With `C=CC(=O)Nc1cnc2c(c1)c(/C=C/C1CCC(F)(F)CC1)cn2C(C)C` [Compound 19, (E)-N-(3-(2-(4,4-Difluorocyclohexyl)vinyl)-1-isopropyl-1H-pyrrolo[2,3-b]pyridin-5-yl)acrylamide], the negative logarithm of the IC50 (pIC50) in experiment [1] is at least 7.00; in experiment [2], 6.00 to 7.00; in experiment [3] it was at least 7.00.

As for `C=CC(=O)Nc1cnc2c(c1)c(-c1ccc(F)c(Cl)c1)cn2C` [Example 97, N-(3-(3-Chloro-4-fluorophenyl)-1-methyl-1H-pyrrolo[2,3-b]pyridin-5-yl)acrylamide], the pIC50 in experiment [1] is at least 7.00; in experiment [2], at least 7.00; in experiment [3], 6.00 to 7.00.

Regarding `C=CC(=O)Nc1ccc2c(c1)c(/C=C/C1CCC(F)(F)CC1)nn2C` [Compound 1, (E)-N-(3-(2-(4,4-Difluorocyclohexyl)vinyl)-1-methyl-1H-indazol-5-yl)acrylamide], the pIC50 in experiment [1] was at least 7.00; in experiment [2], 6.00 to 7.00; in experiment [3] it was at least 7.00.

For the compound `C=CC(=O)Nc1ccc2c(c1)c(/C=C/c1ccc(Cl)cc1)cn2C(C)C` [Compound 28, (E)-N-(3-(4-Chlorostyryl)-1-isopropyl-1H-indol-5-yl)acrylamide], the negative-log IC50 (pIC50) in experiment [1] is at least 7.00; in experiment [2] it was 6.00 to 7.00; in experiment [3] it was 6.00 to 7.00.

As for `C=CC(=O)Nc1ccc2c(c1)c(/C=C/C1CCC(F)(F)CC1)cn2CC` [Compound 25, (E)-N-(3-(2-(4,4-Difluorocyclohexyl)vinyl)-1-ethyl-1H-indol-5-yl)acrylamide], the pIC50 in experiment [1] was 6.00 to 7.00; in experiment [2], at least 7.00; in experiment [3], at least 7.00.

Source of the values: US20250282735A1, “BICYCLE COMPOUNDS AS TEAD INHIBITOR” (DONG-A ST CO., LTD., priority 2022, published 2025).
